Measurements published in patent publication EP1955072B1, “FLEXIBLE CARBOHYDRATE-BEARING POLYMER” (PreciSense A/S, priority 2005, dated 2007).
pIC50: −log10 of the molar value.

Tests used:
[1] = molecular target: T1, biotinylated MBL (Mannan Binding Lectin) (Homo sapiens, UniProt P11226); test: ELLA (Enzyme Linked Lectin Assay), glucose inhibition of MBL binding to coated antigen, Examples C3/C5; conditions: glucose as inhibitor, 1.25 mM CaCl2, value only valid for this particular assay
Description: The wells were then washed (2 x 200 µl TBS).
Plates were then emptied and washed (3 x 200 µl TBS). […] The results are shown in the graphs in Fig. 1. High absorptions correspond to binding of MBL to the ligand. Baseline absorption corresponds to no binding of MBL to the ligand. […] Therefore, in an optimization step (Example C4) a range of mannose co-polymers having mannose monomer unit contents within the range of 30 % to 50 % were synthesized.
An ELLA assay was carried out as described in Example C3. […] From the inhibition curves, it is possible to calculate an IC50 value for aminodextran and the optimized ligand (Table 6). (The IC50 value is only valid for this particular assay.) TABLE 6

[2] = molecular target: T1, biotinylated MBL (Mannan Binding Lectin); test: ELLA (Enzyme Linked Lectin Assay), glucose inhibition of MBL binding to coated antigen, Examples A8/A8a
Description: Biotinylated MBL was prepared as follows. Biotin-NHS (20 µl, 7 mg/ml in DMSO, -10-15 eq. per MBL monomer) was added to a solution of MBL (3 ml, 0.53 mg) in PBS (3 mL). The solution was gently stirred for 2 h, then transferred to a dialysis tube (MWCO 10-12K) and dialysed against TBS (2 × 1 L) over the course of 24 h. The resulting biotinylated MBL (0.2 mg/ml) in TBS was used without further purification.
The wells were then washed (2x200 µl PBS). ConA-HRP 1% (w/v)(100 µl) in PBS was added and incubated for 1 h. Plates were then emptied and washed (3x200 µl PBS). […] The wells were then washed (2x200 µl TBS). […] Plates were then emptied and washed (3x200 µl TBS).

T1 sequence (P11226 21-248): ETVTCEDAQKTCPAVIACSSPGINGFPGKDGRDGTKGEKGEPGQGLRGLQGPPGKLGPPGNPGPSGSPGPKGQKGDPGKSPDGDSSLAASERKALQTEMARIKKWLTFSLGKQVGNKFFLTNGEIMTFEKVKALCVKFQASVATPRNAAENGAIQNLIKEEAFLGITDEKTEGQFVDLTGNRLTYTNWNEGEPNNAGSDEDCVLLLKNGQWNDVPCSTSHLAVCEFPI

pIC50 ([1]; coated antigen: 35 mol% Man Copolymer): 1.89
pIC50 ([1]; coated antigen: Aminodextran): 1.64
pIC50 ([2]; coated antigen: AmDex 150K (aminodextran), dilutions of glucose 100 mM to 0 mM, read-out: MBL affinity (IC50) or Abs(0 mM Glc)): 2.01
pIC50 ([2]; coated antigen: Polymer of Example A4a, dilutions of glucose 100 mM to 0 mM, read-out: MBL affinity (IC50) or Abs (0 mM Glc)): 1.10 to 1.30
pIC50 ([2]; glucose inhibiting MBL binding to plate coated with 40 mol% mannose polymer of Example A4 (Example A8), TBS, 1.25 mM CaCl2, pH 7.4, read-out: IC50): 1.77
pIC50 ([2]; glucose inhibiting MBL binding to plate coated with 80 mol% mannose polymer of Example A4a, TBS, 1.25 mM CaCl2, pH 7.4, read-out: IC50): 1.10 to 1.30
SMILES: OC[C@H]1OC(O)[C@H](O)[C@@H](O)[C@@H]1O (stereo partly drawn) [glucose]
